This is an account of results in US9604946B2, “Methods for modulating bacterial virulence and related compounds” (priority 2013, dated 2017).

For one assay, the system named is S. Typhimurium. In words: S. Typhimurium replication in J774 macrophages with and without compound. Conditions: 500 and 5 nM compound. The assay is classed as cell-based. The procedure:
Compounds CF325, CF326, CF327, CF329, CF330, CF331, CF332, CF333, CF334, CF338, CF339, CF340, CF341, CF342, CF343, CF344, CF345, CF349, CF350, CF351, and CF352 were screened by measuring the inhibition of S. Typhimurium replication in the presence (500 and 5 nM) and absence of the compound with J774 macrophage or using a qRT PCR study comparing the levels of gene expression in the presence of 5 and 500 nM concentrations of the target compound. Compounds CF331, CF338, CF340, CF341 and CF345 were also screened using a fluorescein actin staining test to determine the number of HeLa cells infected by measuring the inhibition of AE lesion formation.

In a further assay the test system is EHEC. Description: qRT-PCR of gene expression in EHEC as change from wild-type expression. Conditions: 5 and 500 nM compound. The assay is classed as cell-based, enterohemorrhagic E. coli.
In a further assay the target is QseC (Escherichia coli O157:H7, UniProt Q8X524). Conditions: earlier work, U.S. Pat. No. 8,252,841; Clarke et al., 2006; Rasko et al., 2008; cited from earlier work.
Chain of QseC (Q8X524 whole entry): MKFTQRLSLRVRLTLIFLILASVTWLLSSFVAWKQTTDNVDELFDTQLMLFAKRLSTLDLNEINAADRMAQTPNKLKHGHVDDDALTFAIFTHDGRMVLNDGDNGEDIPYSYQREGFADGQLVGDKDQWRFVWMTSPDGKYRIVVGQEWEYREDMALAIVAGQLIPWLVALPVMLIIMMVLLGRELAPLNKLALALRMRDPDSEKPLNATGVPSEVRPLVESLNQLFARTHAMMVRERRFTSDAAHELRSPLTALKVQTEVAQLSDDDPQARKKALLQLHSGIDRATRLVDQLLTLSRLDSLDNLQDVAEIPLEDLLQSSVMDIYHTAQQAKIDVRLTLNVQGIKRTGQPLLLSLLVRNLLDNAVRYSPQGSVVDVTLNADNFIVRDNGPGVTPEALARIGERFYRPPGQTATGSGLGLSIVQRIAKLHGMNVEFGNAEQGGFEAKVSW
The next assay concerns A. baumannii. In words: Biofilm formation by A. baumannii. The assay is classed as cell-based, Acinetobacter baumannii. Conditions: acts through QseC.

As for `O=C(Nc1nccs1)c1c(F)cc(F)cc1F` [CF325], the “modulation of S. Typhimurium virulence (intra J774 macrophage replication)” value (shortened to “modulation of S. Typhimurium virulence”) with S. Typhimurium is “showed potency in preventing S. Typhimurium virulence”. For the compound `COc1ccc(C(=O)Nc2nccs2)c(OC)c1` [CF326], the “modulation of S. Typhimurium virulence” value with S. Typhimurium is on record as “showed potency in preventing S. Typhimurium virulence”. In addition, the “activity on virulence of EHEC (gene expression level by qRT-PCR)” value (from here on “activity on virulence of EHEC”) with EHEC is listed as “antagonist activity against the virulence of EHEC”. As for `CC(=O)Nc1nccs1` [CF327], the “modulation of S. Typhimurium virulence” value in the assay with S. Typhimurium is “showed little modulation of the virulence of S. Typhimurium”. Moreover, the “activity on virulence of EHEC” value in the assay with EHEC is “acted as agonist of virulence”. In the case of `COc1ccc(C(=O)Nc2nc(-c3ccc(C)cc3)cs2)c(OC)c1` [CF329], the “modulation of S. Typhimurium virulence” value in the assay with S. Typhimurium was “showed little modulation of the virulence of S. Typhimurium”. For the same compound, in the assay with EHEC, the “activity on virulence of EHEC” value is “antagonist activity against the virulence of EHEC”. Regarding `COc1ccc(C(=O)Nc2ncc[nH]2)c(OC)c1` [CF330], in the assay with EHEC, the “activity on virulence of EHEC” value was “acted as agonist of virulence”. As to `O=C(Nc1nccs1)C12CC3CC(CC(C3)C1)C2` [CF331], in the assay with EHEC, the “activity on virulence of EHEC” value is on record as “antagonist activity against the virulence of EHEC” and the “rank of modulation of bacterial virulence among the EHEC antagonist compounds” value is listed as “greatest modulation of bacterial virulence”. For `COc1cccc(OC)c1C(=O)Nc1nccs1` [CF332], the “modulation of S. Typhimurium virulence” value in the assay on S. Typhimurium is given as “showed little modulation of the virulence of S. Typhimurium”. With `COc1ccc(C(=O)Nc2nc(C)c(C)s2)c(OC)c1` [CF333], in the assay on EHEC, the “activity on virulence of EHEC” value is “antagonist activity against the virulence of EHEC”.

On to `O=C(Nc1nccs1)c1c(Cl)cc(Cl)cc1Cl` [CF334], for which the “activity on virulence of EHEC” value in the assay with EHEC is “acted as agonist of virulence”.

Consider `CC12CC3CC(C)(C1)CC(C(=O)Nc1nccs1)(C3)C2` [CF345], for which, in the assay on EHEC, the “activity on virulence of EHEC” value is “antagonist activity against the virulence of EHEC” and the “rank of modulation of bacterial virulence among the EHEC antagonist compounds” value is reported as “greatest modulation of bacterial virulence”. Regarding `CC12CC3CC(C)(C1)CC(C(=O)Nc1ncco1)(C3)C2` [CF349], the “activity on virulence of EHEC” value in the assay on EHEC is “acted as agonist of virulence”. As to `CCOC(=O)c1csc(NC(=O)C23CC4CC(C)(CC(C)(C4)C2)C3)n1` [CF351], the “activity on virulence of EHEC” value in the assay with EHEC is on record as “acted as agonist of virulence”. Take `CC12CC3CC(C)(C1)CC(C(=O)Nc1nc(C#N)cs1)(C3)C2` [CF352]: in the assay on EHEC, the “activity on virulence of EHEC” value is “antagonist activity against the virulence of EHEC”.

Turning to `CC12CC3CC(C)(C1)CC(C(=O)Nc1ncc(F)s1)(C3)C2` [CF354], the “activity on virulence of EHEC” value with EHEC was “antagonist activity against the virulence of EHEC”. `O=S(=O)(Nc1ccccc1)c1ccc(NC(=S)Nc2ccccc2)cc1` [LED209]: the “block of QseC response to the signal” value at QseC was “can block the QseC response to the signal”. Consider `Cc1ccc(N(CC2=NCCN2)c2cccc(O)c2)cc1` [phentolamine], for which, in the assay on A. baumannii, the “inhibition of biofilm formation” value was “inhibited”. For the same compound, the “block of QseC response to the signal” value at QseC is on record as “block this response”.
